The structures appear in SMILES notation. pIC50: −log10 of the molar value.

System in the first experiment: not given
Test: not given
The settings on record: clinical trials in AD patients; cited from earlier work.
Turning to `COc1ccc2cc([C@H](C)C(=O)O)ccc2c1` [Naproxen], the “efficacy for treating AD” value is “failed to show efficacy”.

As for `CS(=O)(=O)c1ccc(C2=C(c3ccccc3)C(=O)OC2)cc1` [rofecoxib], the “efficacy for treating AD” value is “failed to show efficacy”.

The test system of another experiment is Aβ42. Kind of experiment: Detection of secreted Aβ42 with Biosource ELISA kit in H4 cells expressing APP695. Type of experiment: cell-based. The settings on record: Ab42 lowering, cell based assay; read-out: Ab42 IC50. As for the experimental part: The present invention provides compositions and methods for lowering Aβ42 levels. To test whether compounds and compositions are capable of modulating Aβ levels, a sandwich enzyme-linked immunosorbent assay (ELISA) is employed to measure secreted Aβ (Aβ42 and/or Aβ40) levels. In this example, H4 cells expressing wide type APP695 are seeded at 200,000 cells/per well in 6 well plates, and incubated at 37 degree C. with 5% CO2 overnight. Cells are treated with 1.5 ml medium containing vehicle (DMSO) or a test compound at 1.25 μM, 2.5 μM, 5.0 μM and 10.0 μM (as well as other concentration if desirable) concentration for 24 hours or 48 hours. The supernatant from treated cells is collected into eppendorf tubes and frozen at −80 degree C. for future analysis.
The amyloid peptide standard is reconstituted and frozen samples are thawed. The samples and standards are diluted with appropriate diluents and the plate is washed 4 times with Working Wash Buffer and patted dry on a paper towel. 100 μL per well of peptide standards, controls, and dilutions of samples to be analyzed is added. The plate is incubated for 2 hours while shaking on an orbital plate shaker at RT. The plate is then washed 4 times with Working Wash Buffer and patted dry on a paper towel. Detection Antibody Solution is poured into a reservoir and 100 μL /well of Detection Antibody Solution is immediately added to the plate. The plate is incubated at RT for 2 hours while shaking and then washed four times with Working Wash Buffer and patted dry on a paper towel. Secondary Antibody Solution is then poured into a reservoir and 100 μL /well of Secondary Antibody Solution is immediately added to the plate. The plate is incubated at RT for 2 hours with shaking, washed 5 times with Working Wash Buffer, and patted dry on a paper towel.
100 μL of stabilized chromogen is added to each well and the liquid in the wells begins to turn blue. The plate is incubated for 30 minutes at room temperature and in the dark. 100 μL of stop solution is added to each well and the plate is tapped gently to mix resulting in a change of solution color from blue to yellow. The absorbance of each well is read at 450 nm having blanked the plate reader against a chromogen blank composed of 100 μL each of stabilized chromogen and stop solution. The plate is read within 2 hours of adding the stop solution. The absorbance of the standards is plotted against the standard concentration and the concentrations of unknown samples and controls are calculated.
These compounds were synthesized via the indicated synthetic route. Ab42 IC50 (uM) refers to IC50 value for Ab42 lowering in e.g., the assay described in Example 6.
Consider `CCC(C)(C)C1CCc2c(cc(-c3cc4ccccc4o3)n2-c2cccc(C(=O)O)c2)C1` (stereo not drawn) [3-[2-benzofuran-2-yl-5-(1,1-dimethylpropyl) 4,5,6,7-tetrahydroindol-1-yl] benzoic acid], for which the pIC50 was 5.43.

On to `O=C(O)c1coc(Cn2c(-c3cc(-c4ccccc4)no3)cc3c2CCc2ccccc2-3)c1` [5-[2-(3-phenylisoxazol-5-yl)-4,5-dihydrobenzo[e]indol-3-ylmethyl] furan-3-carboxylic acid], for which the negative-log IC50 (pIC50) was less than 4.00.

For the compound `O=C(O)c1ccc(-n2c(-c3ccccc3)cc3c2CC(C(F)(F)F)CC3)o1` (stereo not drawn) [5-(2-phenyl-6-trifluoromethyl 4,5,6,7-tetrahydroindol-1-yl)-furan-2-carboxylic acid], the pIC50 is 4.60.

In the case of `CC1CCc2cc(-c3ccccc3)n(-c3ccc(C(=O)O)o3)c2C1` (stereo not drawn) [5-(6-methyl-2-phenyl-4,5,6,7-tetrahydroindol-1-yl) furan-2-carboxylic acid], the pIC50 is less than 4.00.

In the case of `O=C(O)c1cccc(-n2c(-c3ccncc3)cc3c2CCc2ccccc2-3)c1` [3-(2-pyridin-4-yl-4,5-dihydrobenzo[e]indol-3-yl) benzoic acid], the pIC50 is 4.19.

Take `O=C(O)c1cccc(-n2c(-c3ccccn3)cc3c4ccccc4ccc32)c1` [3-(2-pyridin-2-yl-benzo[e]indol-3-yl) benzoic acid]: the pIC50 was 4.10.

As for `O=C(O)c1ccc(-n2c(-c3ccc(Cl)c(Cl)c3)cc3c2CCC(C(F)(F)F)C3)o1` (stereo not drawn) [5-[2-(3,4-dichlorophenyl)-5-trifluoromethyl 4,5,6,7-tetrahydroindol-1-yl]-furan-2-carboxylic acid], the pIC50 is 5.80.

Turning to `O=C(O)c1cccc(-n2c(-c3ccc(-c4ccc(Cl)cc4Cl)o3)cc3c4ccccc4ccc32)c1` [3-{2-[5-(2,4-dichlorophenyl)-furan-2-yl]-benzo[e]indol-3-yl} benzoic acid], the pIC50 is 4.48.

As to `COc1ccc(-c2cc3c(n2-c2nc(C(=O)O)cs2)CCC(C(F)(F)F)C3)cc1OC` (stereo not drawn) [2-[2-(3,4-dimethoxyphenyl)-5-trifluoromethyl-4,5,6,7-tetrahydroindol-1-yl]-thiazole-4-carboxylic acid], the negative logarithm of the IC50 (pIC50) is less than 4.00.

The experiment is the same for the next values; noted with them: IC50 value for Ab42 lowering in e.g. the assay described in Example 6; read-out: Ab42 IC50.
In the case of `O=C(O)C1CCCC(n2c(-c3ccccc3)cc3c4ccccc4ccc32)C1` (stereo not drawn) [Compound 66, 3-(2-phenylbenzo[e]indol-3-yl) cyclohexane carboxylic acid], the negative-log IC50 (pIC50) is 4.27.

`O=C(O)CCCc1ccc(-n2c(-c3ccccc3)cc3c2CCCC3)cc1` [Compound 86, 4-[4-(2-phenyl 4,5,6,7-tetrahydroindol-1-yl)-phenyl] butyric acid]: the negative logarithm of the IC50 (pIC50) is 4.52.

The same experiment, now with this note: cell based assay described in Example 6; read-out: Ab42 lowering IC50.
As to `O=C(O)c1cccc(-n2c(-c3cc(-c4ccccc4)no3)cc3c2CCc2ccccc2-3)c1` [Compound 139], the pIC50 was 5.70.

System in another experiment: not given
Test: not given
The settings on record: large prevention trial, patients having mild cognitive impairment; placebo 4.5%; cited from earlier work.
Consider `CS(=O)(=O)c1ccc(C2=C(c3ccccc3)C(=O)OC2)cc1` [rofecoxib], for which the “patients who developed AD” value was 6.4%.

The values are drawn from patent publication US9034871B2, “Compounds for Alzheimer's disease” (priority 2004, dated 2015).
